What was measured:
male Wistar rats [1] = assay: Adverse effects of injection in rats; format: in vivo; conditions: peptide #6 0.2, 1 or 5 mg per rat i.v.
male Wistar rats [2] = format: in vivo, rat; conditions: 20 h post-injection, n = 5 rats, vs PBS

ENFVAFVDKCCAADDKEA CFAVEGPKLVVSTQTALA [peptide #6]
adverse effects of injection (male Wistar rats [1]): no adverse effects | uptake of 111In-octreotide in the pancreas and other organs (male Wistar rats [2]; peptide #6 5 mg i.v.): unaffected | uptake of 111In-minigastrin and 111In-exendin in organs other than the kidneys (male Wistar rats [2]; peptide #6 i.v.): not affected

From paper PMC2816240 (European Journal of Nuclear Medicine and Molecular Imaging, 2009)
